Results published in PubChem BioAssay AID248 (DTP/NCI, 2004).
Several values for one entry are separate records, joined by “and”; a condition that tells them apart may be missing. Equal values may be shown once. Inconclusive results and toxic doses are left out. Rule as the data show it: active = T/C of 150% or more; inactive = T/C below 125%.

Tested on: L1210 leukemia ip in BDF1 mice, survival T/C
Assay: NCI In Vivo Anticancer Drug Screen. Data for tumor model L1210 Leukemia (intraperitoneal) in B6D2F1 (BDF1) mice
Conditions: endpoint: mean survival time, higher = longer survival
Summary of the method: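 Transplantable tumor model; survival measured in treated vs vehicle control mice. Value = treated/control.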

[1] = dose: 50.0 mg/kg/injection, schedule: Q01DX001 (ip), vehicle: other
[2] = dose: 100.0 mg/kg/injection, schedule: Q01DX001 (ip), vehicle: other
[3] = dose: 200.0 mg/kg/injection, schedule: Q01DX001 (ip), vehicle: other
[4] = dose: 400.0 mg/kg/injection, schedule: Q01DX001 (ip), vehicle: other
[5] = dose: 25.0 mg/kg/injection, schedule: Q04DX003 (ip), vehicle: Klucel (hydroxypropylcellulose) (HPC)
[6] = dose: 50.0 mg/kg/injection, schedule: Q04DX003 (ip), vehicle: Klucel (hydroxypropylcellulose) (HPC)
[7] = dose: 50.0 mg/kg/injection, schedule: Q01DX009 (ip), vehicle: Klucel (hydroxypropylcellulose) (HPC)
[8] = dose: 100.0 mg/kg/injection, schedule: Q01DX009 (ip), vehicle: Klucel (hydroxypropylcellulose) (HPC)
[9] = dose: 100.0 mg/kg/injection, schedule: Q01DX001 (ip), vehicle: saline
[10] = dose: 200.0 mg/kg/injection, schedule: Q01DX001 (ip), vehicle: saline
[11] = dose: 400.0 mg/kg/injection, schedule: Q01DX001 (ip), vehicle: saline
[12] = dose: 100.0 mg/kg/injection, schedule: Q04DX003 (ip), vehicle: saline
[13] = dose: 25.0 mg/kg/injection, schedule: Q01DX001 (ip), vehicle: saline with Tween-80
[14] = dose: 50.0 mg/kg/injection, schedule: Q01DX001 (ip), vehicle: saline with Tween-80
[15] = dose: 100.0 mg/kg/injection, schedule: Q04DX002 (ip), vehicle: Klucel (hydroxypropylcellulose) (HPC)
[16] = dose: 200.0 mg/kg/injection, schedule: Q01DX009 (ip), vehicle: Klucel (hydroxypropylcellulose) (HPC)
[17] = dose: 400.0 mg/kg/injection, schedule: Q01DX009 (ip), vehicle: Klucel (hydroxypropylcellulose) (HPC)
[18] = dose: 100.0 mg/kg/injection, schedule: Q04DX003 (ip), vehicle: saline with Tween-80
[19] = dose: 200.0 mg/kg/injection, schedule: Q04DX003 (ip), vehicle: saline with Tween-80
[20] = dose: 400.0 mg/kg/injection, schedule: Q04DX003 (ip), vehicle: saline with Tween-80

Measured: T/C

Brc1cccc(Br)n1
inactive: [1] 101 % of control | [2] 121 % of control | dose: 100.0 mg/kg/injection, schedule: Q04DX002 (ip), vehicle: saline with Tween-80 106 % of control | [3] 97 % of control | dose: 200.0 mg/kg/injection, schedule: Q04DX002 (ip), vehicle: saline with Tween-80 93 % of control | [4] 101 % of control | dose: 400.0 mg/kg/injection, schedule: Q04DX002 (ip), vehicle: saline with Tween-80 106 % of control

Cn1[nH]c(=O)c2ccccc2c1=O
inactive: dose: 8.2 mg/kg/injection, schedule: Q04DX003 (ip), vehicle: Klucel (hydroxypropylcellulose) (HPC) 104 % of control | dose: 12.5 mg/kg/injection, schedule: Q04DX003 (ip), vehicle: Klucel (hydroxypropylcellulose) (HPC) 109 % of control and 120 % of control | dose: 18.0 mg/kg/injection, schedule: Q04DX003 (ip), vehicle: Klucel (hydroxypropylcellulose) (HPC) 108 % of control | [5] 97 % of control | [6] 110 % of control | dose: 100.0 mg/kg/injection, schedule: Q04DX003 (ip), vehicle: Klucel (hydroxypropylcellulose) (HPC) 106 % of control | dose: 200.0 mg/kg/injection, schedule: Q04DX003 (ip), vehicle: Klucel (hydroxypropylcellulose) (HPC) 106 % of control | dose: 400.0 mg/kg/injection, schedule: Q04DX003 (ip), vehicle: Klucel (hydroxypropylcellulose) (HPC) 103 % of control

CCCCCCCCCCCCCCCC[N+]1(C)CCOCC1
inactive: [7] 114 % of control | [8] 93 % of control

CCCCC(=O)CCl
inactive: [9] 103 % of control | [10] 120 % of control | [11] 114 % of control

Cc1ccc(CCN)cc1C
inactive: dose: 25.0 mg/kg/injection, schedule: Q04DX003 (ip), vehicle: saline 103 % of control | dose: 50.0 mg/kg/injection, schedule: Q04DX003 (ip), vehicle: saline 101 % of control | [12] 101 % of control and 112 % of control

COc1ccc2cc(OC)ccc2c1
inactive: dose: 100.0 mg/kg/injection, schedule: Q01DX001 (ip), vehicle: saline sonified 98 % of control | dose: 200.0 mg/kg/injection, schedule: Q01DX001 (ip), vehicle: saline sonified 96 % of control | dose: 400.0 mg/kg/injection, schedule: Q01DX001 (ip), vehicle: saline sonified 96 % of control

CN(C)c1nc(N)c(N)c(N)n1
inactive: [13] 101 % of control | [14] 107 % of control | dose: 100.0 mg/kg/injection, schedule: Q01DX001 (ip), vehicle: saline with Tween-80 96 % of control and 97 % of control

CC1CN=C(c2cccc(NC(=O)c3ccc(C(=O)Nc4cccc(C5=NCC(C)N5)c4)c(N)c3)c2)N1 (stereo not drawn)
inactive: dose: 1.25 mg/kg/injection, schedule: Q01DX Z (ip), vehicle: water 91 % of control | dose: 2.5 mg/kg/injection, schedule: Q01DX Z (ip), vehicle: water 89 % of control

Nc1[nH]c(=S)[nH]c(=S)c1N
inactive: dose: 125.0 mg/kg/injection, schedule: Q01DX Z (ip), vehicle: methylcellulose (MC) 101 % of control

O=C(c1ccccc1)C1CCCC1
inactive: [15] 89 % of control | dose: 200.0 mg/kg/injection, schedule: Q04DX002 (ip), vehicle: Klucel (hydroxypropylcellulose) (HPC) 105 % of control

COc1ccc(Cl)cc1NC(=O)Oc1ccc(C=O)cc1OC
inactive: [8] 102 % of control and 114 % of control | [16] 98 % of control and 104 % of control | [17] 104 % of control and 109 % of control

Cc1nc2ccccc2cc1CO
inactive: [18] 105 % of control | [19] 102 % of control | [20] 102 % of control

CCCCCCCCCCCCCCCCCC1=NCCN1
inactive: dose: 6.25 mg/kg/injection, schedule: Q01DX009 (ip), vehicle: Klucel (hydroxypropylcellulose) (HPC) 95 % of control | dose: 12.5 mg/kg/injection, schedule: Q01DX009 (ip), vehicle: Klucel (hydroxypropylcellulose) (HPC) 87 % of control | dose: 25.0 mg/kg/injection, schedule: Q01DX009 (ip), vehicle: Klucel (hydroxypropylcellulose) (HPC) 92 % of control | dose: 25.0 mg/kg/injection, schedule: Q04DX002 (ip), vehicle: Klucel (hydroxypropylcellulose) (HPC) 103 % of control | [1] 91 % of control | dose: 50.0 mg/kg/injection, schedule: Q04DX002 (ip), vehicle: Klucel (hydroxypropylcellulose) (HPC) 103 % of control | [2] 97 % of control | [15] 95 % of control and 98 % of control | [3] 89 % of control | [4] 97 % of control

O=C(NCOC(c1ccccc1)c1ccccc1)c1cccnc1
inactive: [12] 89 % of control | dose: 200.0 mg/kg/injection, schedule: Q04DX003 (ip), vehicle: saline 86 % of control | dose: 400.0 mg/kg/injection, schedule: Q04DX003 (ip), vehicle: saline 92 % of control

CN1CCC23c4c5ccc(O)c4OC2C(=O)CCC3C1C5 (stereo not drawn)
inactive: dose: 75.0 mg/kg/injection, schedule: Q01DX001 (ip), vehicle: saline 95 % of control

COc1ccc(Cl)cc1NC(=O)Nc1ccc(SC)cc1
inactive: [8] 98 % of control | [16] 94 % of control | [17] 96 % of control

Cc1cccc(NC(=S)Nc2ccc(-c3ccc(NC(=S)Nc4cccc(C)c4)cc3)cc2)c1
inactive: dose: 100.0 mg/kg/injection, schedule: Q01DX009 (ip), vehicle: other 104 % of control | dose: 200.0 mg/kg/injection, schedule: Q01DX009 (ip), vehicle: other 106 % of control | dose: 400.0 mg/kg/injection, schedule: Q01DX009 (ip), vehicle: other 96 % of control

O=c1nc(SCc2ccccc2)c(SCc2ccccc2)n[nH]1
inactive: [9] 95 % of control | [10] 98 % of control | [11] 91 % of control

Nc1c2ccccc2cc2cccc[n+]12
inactive: dose: 9.38 mg/kg/injection, schedule: Q01DX001 (ip), vehicle: other 101 % of control and 100 % of control | dose: 18.75 mg/kg/injection, schedule: Q01DX001 (ip), vehicle: other 97 % of control and 99 % of control

Cc1cnc2c(Nc3ccc(Cl)cc3)cc(N)nc2n1
inactive: dose: 12.5 mg/kg/injection, schedule: Q01DX001 (ip), vehicle: other 94 % of control | dose: 25.0 mg/kg/injection, schedule: Q01DX001 (ip), vehicle: other 96 % of control | [5] 96 % of control | [1] 94 % of control and 105 % of control | [7] 94 % of control | [6] 101 % of control

CCC1(C)N=C(C)C(C)S1 (stereo not drawn)
inactive: [18] 111 % of control | [19] 100 % of control | [20] 100 % of control

Nc1c2ccccc2nc2ccccc12
inactive: dose: 5.0 mg/kg/injection, schedule: Q01DX009 (ip), vehicle: Klucel (hydroxypropylcellulose) (HPC) 105 % of control | dose: 10.0 mg/kg/injection, schedule: Q01DX009 (ip), vehicle: Klucel (hydroxypropylcellulose) (HPC) 98 % of control | dose: 15.0 mg/kg/injection, schedule: Q01DX009 (ip), vehicle: Klucel (hydroxypropylcellulose) (HPC) 103 % of control | [18] 86 % of control | [19] 86 % of control

CC1(/C=N\NC(=O)CCCC(=O)N/N=C/C2(C)CCC=CO2)CCC=CO1 (stereo not drawn)
inactive: [9] 92 % of control | [11] 97 % of control

Cc1ccc(CCCC(CC(=O)O)C(=O)O)cc1 (stereo not drawn)
inactive: dose: 12.5 mg/kg/injection, schedule: Q01DX001 (ip), vehicle: saline with Tween-80 100 % of control | [13] 98 % of control | [14] 88 % of control

COc1cc2c(c(OC)c1OC)-c1ccc(SCC3CCC4CC3C4(C)C)c(=O)cc1C(NC(C)=O)CC2 (stereo not drawn)
inactive: dose: 12.5 mg/kg/injection, schedule: Q04DX002 (ip), vehicle: saline 100 % of control | dose: 25.0 mg/kg/injection, schedule: Q04DX002 (ip), vehicle: saline 95 % of control | dose: 50.0 mg/kg/injection, schedule: Q04DX002 (ip), vehicle: saline 106 % of control

O=C(NCCCl)NC1OCC(O)C(O)C1O (stereo not drawn)
inactive: [9] 112 % of control | [10] 97 % of control | [11] 103 % of control

O=P(OCc1ccccc1)(N(CCCl)CCCl)N1CCN(Cc2ccccc2)CC1 (stereo not drawn)
inactive: dose: 10.0 mg/kg/injection, schedule: Q01DX Z (ip), vehicle: saline 93 % of control | dose: 30.0 mg/kg/injection, schedule: Q01DX Z (ip), vehicle: saline 90 % of control | dose: 100.0 mg/kg/injection, schedule: Q01DX Z (ip), vehicle: saline 95 % of control
